These results are taken from patent publication US4272437A, “Antibacterial agents, and 4-thio azetidinone intermediates” (priority 1979, dated 1981).

Values after ≈ are worked out from the molar mass of the structure shown. Read-outs that look alike come from different tables or passages of the source.

For assay [1], the system named is Ent. cloacae A-9656. Nature of the assay: MIC, tube dilution, Enterobacter cloacae A9656. In kind it is cell-based. The note with it: overnight 37° C., read-out: Minimum Inhibitory Concentration (M.I.C.). The text has this: (§1) Representative compounds of the present invention were subjected to in vitro antibiotic screening against a variety of microorganisms.
The test system of assay [2] is Staph. aureus (Meth-Res) A-15097. The assay can be described thus: MIC, tube dilution, Staphylococcus aureus A15097 (Meth-Res). In kind it is cell-based. The note with it: Staphylococcus aureus, overnight 37° C.
From the text: as §1

Assay [3] has as its system Str. pneumoniae A-9585. The assay can be described thus: MIC, tube dilution, Streptococcus pneumoniae A9585. In kind it is cell-based. The note with it: Streptococcus pneumoniae, A9585, Str. pneumoniae A9585; overnight 37° C., Nutrient Broth; read-out: Minimum Inhibitory Concentration (M.I.C.).
From the text: as §1

The test system of assay [4] is Pr. mirabilis A-9900. The assay can be described thus: MIC, tube dilution, Proteus mirabilis A9900. In kind it is cell-based. The following applies: Proteus mirabilis, A9900, Proteus mirabilis A9900; overnight 37° C.; read-out: Minimum Inhibitory Concentration (M.I.C.).
From the text: as §1

In assay [5] the test system is Ser. marcescens A-20019. The assay can be described thus: MIC, tube dilution, Serratia marcescens A20019. It is filed as cell-based. The note with it: Serratia marcescens, A20019, Serratia marcescens A20019; overnight 37° C.; read-out: Minimum Inhibitory Concentration (M.I.C.).
From the text: as §1

The test system of assay [6] is K. pneumoniae A-15130. Nature of the assay: MIC, tube dilution, Klebsiella pneumoniae A15130. The note with it: Klebsiella pneumoniae, A15130, K. pneumoniae A15130; overnight 37° C.; read-out: Minimum Inhibitory Concentration (M.I.C.). In kind it is cell-based.
From the text: as §1

Assay [7] has as its system Staph. aureus (Pen-Res) A-9606. The assay can be described thus: MIC, tube dilution, Staphylococcus aureus A9606 (Pen-Res). It is filed as cell-based. The note with it: Staphylococcus aureus, overnight 37° C.
From the text: as §1

Assay [8] concerns Str. faecalis A-20688. The assay can be described thus: MIC, tube dilution, Streptococcus faecalis A20688. It is filed as cell-based. The following applies: Enterococcus faecalis, A20688, Str. faecalis A20688; overnight 37° C.; read-out: Minimum Inhibitory Concentration (M.I.C.).
From the text: as §1

Assay [9] has as its system Proteus rettgeri A21203. Nature of the assay: MIC, tube dilution, Proteus rettgeri A21203. The following applies: Providencia rettgeri, overnight 37° C., read-out: Minimum Inhibitory Concentration (M.I.C.). It is filed as cell-based.
From the text: as §1

Assay [10] concerns Str. pyogenes A-9604. The assay can be described thus: MIC, tube dilution, Streptococcus pyogenes A9604. It is filed as cell-based. The note with it: Streptococcus pyogenes, A9604, Str. pyogenes A9604; overnight 37° C., Nutrient Broth; read-out: Minimum Inhibitory Concentration (M.I.C.).
From the text: as §1

The subject of assay [11] is E. coli A-20341-1. The assay can be described thus: MIC, tube dilution, Escherichia coli A20341-1. In kind it is cell-based.
From the text: as §1

Assay [12] has as its system Klebsiella species A20468. The assay can be described thus: MIC, tube dilution, Klebsiella species A20468. In kind it is cell-based. The note with it: Klebsiella species (K. pneumoniae) A20468; overnight 37° C.; read-out: Minimum Inhibitory Concentration (M.I.C.).
From the text: as §1

The subject of assay [13] is Pr. vulgaris A-9716. The assay can be described thus: MIC, tube dilution, Proteus vulgaris / Proteus mirabilis A9716. It is filed as cell-based, Proteus vulgaris (name changed to Proteus mirabilis). The following applies: Proteus vulgaris, overnight 37° C.
From the text: as §1

The subject of assay [14] is Ps. aeruginosa A-9843A. The assay can be described thus: MIC, tube dilution, Pseudomonas aeruginosa A9843A. The following applies: Pseudomonas aeruginosa, A9843A, read-out: Minimum Inhibitory Concentration (M.I.C.), Pseudomonas aeruginosa A9843A; overnight 37° C. It is filed as cell-based.
From the text: as §1

Assay [15] has as its system Pr. morganii A-15153. Nature of the assay: MIC, tube dilution, Proteus morganii A15153. The note with it: Morganella morganii, A15153, Proteus morganii A15153; overnight 37° C.; read-out: Minimum Inhibitory Concentration (M.I.C.). In kind it is cell-based.
From the text: as §1

In assay [16] the test system is Staph. aureus A-9537. Nature of the assay: MIC, tube dilution, Staphylococcus aureus A9537. In kind it is cell-based. The note with it: Staphylococcus aureus, A9537, Staph. aureus A9537; overnight 37° C., Nutrient Broth; read-out: Minimum Inhibitory Concentration (M.I.C.).
From the text: as §1

In assay [17] the test system is Ent. cloacae A-9659. The assay can be described thus: MIC, tube dilution, Enterobacter cloacae A9659. In kind it is cell-based. The following applies: Enterobacter cloacae, A9659, Enterobacter cloacae A9659; overnight 37° C.; read-out: Minimum Inhibitory Concentration (M.I.C.).
From the text: as §1

For assay [18], the system named is Staph. aureus A-9537 and 50% serum. Nature of the assay: MIC, tube dilution, Staph. aureus A9537 + 50% serum. The note with it: Staphylococcus aureus, overnight 37° C., read-out: Minimum Inhibitory Concentration (M.I.C.). In kind it is cell-based, Staphylococcus aureus.
From the text: as §1

The subject of assay [19] is E. coli A-15119. Nature of the assay: MIC, tube dilution, Escherichia coli A15119. It is filed as cell-based. The following applies: Escherichia coli, A15119, E. coli A15119; overnight 37° C.; read-out: Minimum Inhibitory Concentration (M.I.C.).
From the text: as §1

Assay [20] concerns Ps. aeruginosa A-21213. The assay can be described thus: MIC, tube dilution, Pseudomonas aeruginosa A21213. It is filed as cell-based. The note with it: overnight 37° C., read-out: Minimum Inhibitory Concentration (M.I.C.).
From the text: as §1

The mark [21] stands for this setting: read-out: Minimum Inhibitory Concentration (M.I.C.), Staph. aureus A15097 (Meth-Res).
Where [22] appears, read: read-out: Minimum Inhibitory Concentration (M.I.C.), Staph. aureus A9606 (Pen-Res).
Where [23] appears, read: Escherichia coli, A203411; E. coli A20341-1; overnight 37° C.; read-out: Minimum Inhibitory Concentration (M.I.C.).
[24] abbreviates: A9716, read-out: Minimum Inhibitory Concentration (M.I.C.), Proteus vulgaris / Proteus mirabilis A9716.

In the case of `O=C(O)C1=C(C(F)(F)F)SC2CC(=O)N12` (stereo not drawn) [Example 17, Sodium 2-Trifluoromethylpenem-3-carboxylate], the MIC is more than 125 mg/L in assay [1] (Enterobacter cloacae A9656); more than 125 mg/L in assay [2] (setting [21]); more than 8 mg/L in assay [3]; more than 125 mg/L in assay [4]; more than 125 mg/L in assay [5]; more than 125 mg/L in assay [6]. Besides, the MIC was more than 125 mg/L in [7] (setting [22]); more than 125 mg/L in assay [8]; 125 mg/L in [9] (Proteus rettgeri A21203); more than 8 mg/L in assay [10]; more than 125 mg/L in [11] (setting [23]); more than 125 mg/L in assay [12]. Moreover, the MIC in [13] (setting [24]) is more than 125 mg/L; in [14] it was 125 mg/L; in assay [15] it was more than 125 mg/L; in assay [16], more than 8 mg/L; in [17], more than 125 mg/L; in [18], more than 63 mg/L. The MIC in assay [19] and in assay [20] (Pseudomonas aeruginosa A21213) was 125 mg/L in each case.
Turning to `O=C(O)C1=C(Cc2cscn2)SC2CC(=O)N12` (stereo not drawn) [Example 18, 2-(4'-Thiazolyl)methylpenem-3-carboxylic Acid], the MIC in assay [1] (Enterobacter cloacae A9656) was more than 125 mg/L; in assay [2] (setting [21]) it was more than 125 mg/L; in assay [3], 125 mg/L (≈ 466 µM); in [4] it was more than 125 mg/L; in [5], more than 125 mg/L; in [6] it was more than 125 mg/L. The MIC was more than 125 mg/L in [7] (setting [22]); more than 125 mg/L in assay [8]; 125 mg/L (≈ 466 µM) in assay [9] (Proteus rettgeri A21203); more than 125 mg/L in assay [10]; more than 125 mg/L in [11] (setting [23]); 125 mg/L (≈ 466 µM) in [12]. Moreover, the MIC in [13] (setting [24]) was 125 mg/L (≈ 466 µM); in assay [14], 125 mg/L (≈ 466 µM); in [15] it was 125 mg/L (≈ 466 µM); in [16], 125 mg/L (≈ 466 µM); in assay [17] it was more than 125 mg/L; in [18], more than 63 mg/L. Moreover, the MIC in [19] is more than 125 mg/L; in [20] (Pseudomonas aeruginosa A21213) it was 125 mg/L (≈ 466 µM).
On to `O=C(O)C1=CSC2CC(=O)N12` (stereo not drawn) [Example 19, Penem-3-carboxylic Acid], for which the MIC in assay [1] (Enterobacter cloacae, A9656, Enterobacter cloacae A9656) is 16 mg/L (≈ 93.5 µM); in [2] (Staph. aureus A15097 (Meth-Res), read-out: Minimum Inhibitory Concentration (M.I.C.)), 63 mg/L (≈ 368 µM); in assay [3], 0.5 mg/L (≈ 2.92 µM); in [4], 16 mg/L (≈ 93.5 µM); in [5] it was 16 mg/L (≈ 93.5 µM); in assay [6] it was 16 mg/L (≈ 93.5 µM). Moreover, the MIC in assay [7] (Staph. aureus A9606 (Pen-Res), read-out: Minimum Inhibitory Concentration (M.I.C.)) is 8 mg/L (≈ 46.7 µM); in [8] it was 125 mg/L (≈ 730 µM); in [9] (A21203, Proteus rettgeri A21203) it was 16 mg/L (≈ 93.5 µM); in assay [10] it was 2 mg/L (≈ 11.7 µM); in assay [11] (Escherichia coli, A203411, E. coli A20341-1; overnight 37° C.; read-out: Minimum Inhibitory Concentration (M.I.C.)), 16 mg/L (≈ 93.5 µM); in assay [12] it was more than 125 mg/L. For the same compound, the MIC was determined as 16 mg/L (≈ 93.5 µM) in assay [13] (A9716, Proteus vulgaris / Proteus mirabilis A9716, read-out: Minimum Inhibitory Concentration (M.I.C.)); 63 mg/L (≈ 368 µM) in [14]; 16 mg/L (≈ 93.5 µM) in assay [15]; 4 mg/L (≈ 23.4 µM) in assay [16]; 16 mg/L (≈ 93.5 µM) in assay [17]; 63 mg/L in [18]. The MIC in assay [19] was 8 mg/L (≈ 46.7 µM); in [20] (Pseudomonas aeruginosa, A21213, Pseudomonas aeruginosa A21213), 125 mg/L (≈ 730 µM).
